Patent US7476692B2, “Pharmaceutical compositions of safingol and methods of using the same” (priority 2003, dated 2009)
≈ marks a conversion by molar mass, not a printed value.

Tests used:
Fisher rats = settings: Group III: 4-HPR 61 mg/kg/d D1-5 continuous iv, safingol 0; 3 male rats
protein kinase C (PKC) = settings: variously reported; acting at the regulatory subunit of PKCs; cited from earlier work
[1] = Solubility/miscibility studies of safingol in solvent systems
Method: (§1) The following solubility/miscibility studies were performed with safingol at various concentrations.

sphingosine kinase = settings: variously reported in the literature; cited from earlier work

Method for physchem: as §1

Q: Which results are given for CC1=C(/C=C/C(C)=C/C=C/C(C)=C/C(=O)Nc2ccc(O)cc2)C(C)(C)CCC1 [4-HPR, fenretinide]?
A: Toxicity: din path (Fisher rats): din path: normal; Toxicity: dinical signs (Fisher rats): dinical signs: normal; Toxicity: necropsy: discoloration(lung) (Fisher rats): 3/3; Toxicity: necropsy: emaciation (Fisher rats): 1/3

Q: For CCCCCCCCCCCCCCC[C@H](O)[C@@H](N)CO [Safingol, (2S,3S)-2-amino-1,3-octadecanediol], which “Inhibition of protein kinase C (PKC), including PKCζ” value (protein kinase C (PKC)) is on record?
A: inhibitor

Q: What about the “Precipitate at 2° C. to 8° C.” value ([1]; 50:50 Ethanol:WFI with lactic acid) of the same compound?
A: precipitate formation

Q: And the “Solubility (Result)” value ([1]; Castor oil)?
A: not soluble

Q: What about the “Solubility (Result)” value ([1]; Citric acid/WFI) of the same compound?
A: not soluble

Q: What about the “Solubility (Result)” value ([1]; DMSO) of the same compound?
A: not soluble

Q: What about the “Solubility (Result)” value ([1]; HC1/WFI) of the same compound?
A: not soluble

Q: And the “Solubility (Result)” value ([1]; HCl/Ethanol)?
A: not soluble

Q: What about the “Precipitate at 2° C. to 8° C.” value ([1]; Lactic acid in 2% EPL in WFI) of the same compound?
A: no precipitate

Q: What about the “Solubility (Result)” value ([1]; Lactic acid in 2% EPL in WFI) of the same compound?
A: solubility similar to lactic without EPL

Q: And the “Precipitate at 2° C. to 8° C.” value ([1]; Lactic acid/Ethanol)?
A: precipitate formation

Q: And the “Precipitate at 2° C. to 8° C.” value ([1]; Lactic acid/WFI)?
A: precipitate formation

Q: And the “Solubility (Result)” value ([1]; Maleic acid/WFI)?
A: not soluble

Q: And the “Solubility (Result)” value ([1]; Malic acid/WFI)?
A: not soluble

Q: And the “Solubility (Result)” value ([1]; Methanesulfonic acid/Ethanol)?
A: not soluble

Q: And the “Solubility (Result)” value ([1]; Methanesulfonic acid/WFI)?
A: not soluble, but the appearance of the safingol changed,

Q: And the “Solubility (Result)” value ([1]; Neobee oil)?
A: Not soluble

Q: And the “Temperature at which later found to be soluble” value ([1]; Neobee oil)?
A: ~80 °C

Q: And the “Solubility (Result)” value ([1]; Pluronic F-68/WFI)?
A: not soluble

Q: And the “Precipitate at 2° C. to 8° C.” value ([1]; Propionic acid/WFI)?
A: precipitate formation

Q: What about the “Solubility (Result)” value ([1]; Safflower oil, attempted: 0.5 mg/mL) of the same compound?
A: Not soluble (attempted: 0.5 mg/mL)

Q: And the “Solubility (Result)” value ([1]; Sesame oil, attempted: 0.5 mg/mL)?
A: Not soluble (attempted: 0.5 mg/mL)

Q: What about the “Solubility (Result)” value ([1]; Sodium Lactate/WFI) of the same compound?
A: not soluble

Q: And the “Solubility (Result)” value ([1]; Soybean oil)?
A: Not soluble

Q: And the “Temperature at which later found to be soluble” value ([1]; Soybean oil)?
A: ~80 °C

Q: And the “Solubility (Result)” value ([1]; Tartaric acid/WFI)?
A: not soluble

Q: And the “Solubility (Result)” value ([1]; Tricaprylin, attempted: 0.5 mg/mL)?
A: Not soluble (attempted: 0.5 mg/mL)

Q: And the “Solubility (Result)” value ([1]; Tween-80)?
A: not soluble

Q: And the “Solubility (Result)” value ([1]; Valium solvent, attempted: 0.5 mg/mL)?
A: Not soluble (attempted: 0.5 mg/mL)

Q: What about the “Solubility (Result)” value ([1]; Vitamin E (α-tocopherol)) of the same compound?
A: not soluble

Q: What about the “Precipitates on chilling, versus non-ethanol-containing solutions” value ([1]; ethanol-containing safingol/lactic acid solutions chilled to 2-8° C., then warmed to room temperature) of the same compound?
A: reduced in quantity and dissolved much more readily

Q: What about the “Effect of ethanol on solubility of safingol” value ([1]; lactic acid/water solutions) of the same compound?
A: substantially increased

Q: What about the solubility (physchem; 50:50 ethanol:WFI with lactic acid, aqueous with cosolvent or surfactant or cyclodextrin) of the same compound?
A: ~50000 µg/mL (≈ 166 mM)

Q: And the solubility (physchem; 60:40 t-BuOH/WFI, aqueous with cosolvent or surfactant or cyclodextrin)?
A: 15700 µg/mL (≈ 52 mM)

Q: And the solubility (physchem; DMAC, organic solvent or mixture)?
A: 6600 to 7400 µg/mL (≈ 21.9 to 24.5 mM)

Q: What about the solubility (physchem; Diluent 12, organic solvent or mixture) of the same compound?
A: 7220 µg/mL (≈ 23.9 mM)

Q: And the solubility (physchem; PEG 300, organic solvent or mixture)?
A: 1010 to 1060 µg/mL (≈ 3.35 to 3.52 mM)

Q: And the solubility (physchem; ethanol, organic solvent or mixture)?
A: 7500 to 8200 µg/mL (≈ 24.9 to 27.2 mM)

Q: What about the solubility (physchem; lactic acid in WFI with 5 mg/mL mannitol, aqueous buffer) of the same compound?
A: 10000 µg/mL (≈ 33.2 mM)

Q: What about the solubility (physchem; lactic acid/WFI, aqueous buffer) of the same compound?
A: > 10000 µg/mL

Q: What about the solubility (physchem; lactic acid/ethanol, organic solvent or mixture) of the same compound?
A: ~20000 µg/mL (≈ 66.3 mM)

Q: And the solubility (physchem; propionic acid/WFI, aqueous buffer)?
A: ≥ 5000 µg/mL

Q: What about the solubility (physchem; propylene glycol, organic solvent or mixture) of the same compound?
A: 1060 to 1350 µg/mL (≈ 3.52 to 4.48 mM)

Q: And the solubility (physchem; t-butanol, organic solvent or mixture)?
A: > 25000 µg/mL

Q: What about the “Inhibition of sphingosine kinase” value (sphingosine kinase) of the same compound?
A: inhibitor
